Laboratory results reported in US4071680A, “5'-Deoxy-5-fluoropyrimidine nucleosides” (Hoffmann-La Roche Inc., priority 1976, dated 1978).
Like-named read-outs stand apart in the source and are kept apart here.

Key:
[1] = test system: L1210 leukemia cell cultures; details: Falco and Fox, J. Med. Chem. 11, 148 (1968); cited from earlier work
Burkitt's cell cultures = details: Falco and Fox, J. Med. Chem. 11, 148 (1968); cited from earlier work
Sarcoma 180 Tumor = format: in vivo, albino mice
Experimental: (§1) All compounds were dissolved in water for administration to animals.
(§2) Small pieces of tumor (20-30mg) were implanted subcutaneously by trocar into the right inguinal region of 18-20 g albino mice. The fragments were obtained from donors bearing firm subcutaneous tumors implanted 7-10 days previously. Treatment was begun on the day of implantation and continued once daily for a total of 8 treatments. The animals were sacrificed 8 days after implantation and the tumors excised and weighed. The ratio of the average weight of the tumors from the untreated control group (C) divided by the average weight of the tumors from the treated group (T) was calculated. The percent inhibition of tumor growth was calculated from the formula:
(§3) % Inhibition = 100 (C-T)/C . The compound was considered to be active at a particular dose if % inhibition ≥ 50%.
(§4) Results obtained from experiments, utilizing compounds of the present invention and representative prior art compounds are summarized below in Table 1.
Effect of Pyrimidine Nucleosides Against Sarcoma 180 Tumor in Mice
(active doses are those which produce ≥50% tumor inhibition)

Yoshida sarcoma = details: Japanese Pat. No. 51-086481; cited from earlier work
Ehrlich Carcinoma = format: in vivo, albino mice
Experimental: as §1, §2, §3
The solid form of this tumor was produced by subcutaneous implantation of 0.5 ml of a 1-10 saline - diluted ascitic tumor cell suspensions derived from 18-20 g albino donor mice implanted 7-10 days previously. Treatment and evaluation procedures were identical to those used for Sarcoma 180.
as §4
Effect of pyrimidine Nucleosides Against Ehrlich Carcinoma in Mice

For `C[C@H]1O[C@@H](n2ccc(N)nc2=O)[C@@H](O)[C@@H]1O` [1-(5'-deoxy-β-D-arabinofuranosyl) cytosine], the “activity against L1210 leukemia cell cultures” value [1] is listed as “inactive” and the “activity against Burkitt's cell cultures” value (Burkitt's cell cultures) is listed as “inactive”.

With `C[C@H]1O[C@@H](n2cc(F)c(=O)[nH]c2=O)C[C@@H]1O` [2',5'-Dideoxy-5-Fluorouridine, reference compound] the “Percent Inhibition of tumor growth” value (Sarcoma 180 Tumor; 100 mg/kg × 8, ip) was 37%, the “Percent Inhibition of tumor growth” value (Sarcoma 180 Tumor; 200 mg/kg × 8, ip) was 68% and the “Percent Inhibition of tumor growth” value (Sarcoma 180 Tumor; 200 mg/kg × 8, po) was 34%. For the same compound, the “Percent Inhibition of tumor growth” value (Sarcoma 180 Tumor; 400 mg/kg × 8, ip) was 81% and the “inhibition of growth of Yoshida sarcoma” value (Yoshida sarcoma) was “inhibiting the growth of Yoshida sarcoma”.

With `C[C@H]1O[C@@H](n2cc(F)c(N)nc2=O)[C@H](O)[C@@H]1O` [5'-Deoxy-5-Fluorocytidine] the “Percent Inhibition of tumor growth” value (Sarcoma 180 Tumor; 6.25 mg/kg × 8, po) was 26%, the “Percent Inhibition of tumor growth” value (Sarcoma 180 Tumor; 12.5 mg/kg × 8, ip) was 37% and the “Percent Inhibition of tumor growth” value (Sarcoma 180 Tumor; 12.5 mg/kg × 8, po) was 62%. The “Percent Inhibition of tumor growth” value (Sarcoma 180 Tumor; 25 mg/kg × 8, ip) was 64%, the “Percent Inhibition of tumor growth” value (Sarcoma 180 Tumor; 25 mg/kg × 8, po) was 76% and the “Percent Inhibition of tumor growth” value (Sarcoma 180 Tumor; 50 mg/kg × 8, ip) was 72%. The “Percent Inhibition of tumor growth” value (Sarcoma 180 Tumor; 50 mg/kg × 8, po) was 65%, the “Percent Inhibition of tumor growth” value (Sarcoma 180 Tumor; 100 mg/kg × 8, ip) was 86% and the “Percent Inhibition of tumor growth” value (Sarcoma 180 Tumor; 100 mg/kg × 8, po) was 76%. The “Percent Inhibition of tumor growth” value (Sarcoma 180 Tumor; 200 mg/kg × 8, ip) was 93%, the “Percent Inhibition of tumor growth” value (Sarcoma 180 Tumor; 200 mg/kg × 8, po) was 82% and the “Percent Inhibition of tumor growth” value (Sarcoma 180 Tumor; 400 mg/kg × 8, ip) was 95%. The “Percent Inhibition of tumor growth” value (Sarcoma 180 Tumor; 400 mg/kg × 8, po) was 92%, the “Percent Inhibition of tumor growth” value (Ehrlich Carcinoma; 25 mg/kg × 8, ip) was 45% and the “Percent Inhibition of tumor growth” value (Ehrlich Carcinoma; 25 mg/kg × 8, po) was 37%. The “Percent Inhibition of tumor growth” value (Ehrlich Carcinoma; 50 mg/kg × 8, ip) was 57%, the “Percent Inhibition of tumor growth” value (Ehrlich Carcinoma; 50 mg/kg × 8, po) was 58% and the “Percent Inhibition of tumor growth” value (Ehrlich Carcinoma; 100 mg/kg × 8, ip) was 65%. For the same compound, the “Percent Inhibition of tumor growth” value (Ehrlich Carcinoma; 100 mg/kg × 8, po) was 71%, the “Percent Inhibition of tumor growth” value (Ehrlich Carcinoma; 200 mg/kg × 8, ip) was 72% and the “Percent Inhibition of tumor growth” value (Ehrlich Carcinoma; 200 mg/kg × 8, po) was 80%. The “Percent Inhibition of tumor growth” value (Ehrlich Carcinoma; 400 mg/kg × 8, ip) was 91%, the “Percent Inhibition of tumor growth” value (Ehrlich Carcinoma; 400 mg/kg × 8, po) was 95% and the “Percent Inhibition of tumor growth” value (Ehrlich Carcinoma; 800 mg/kg × 8, po) was 99%.

With `C[C@H]1O[C@@H](n2cc(F)c(=O)[nH]c2=O)[C@H](O)[C@@H]1O` [5'-Deoxy-5-Fluorouridine] the “Percent Inhibition of tumor growth” value (Sarcoma 180 Tumor; 1.56 mg/kg × 8, po) was 30%, the “Percent Inhibition of tumor growth” value (Sarcoma 180 Tumor; 3.12 mg/kg × 8, po) was 51% and the “Percent Inhibition of tumor growth” value (Sarcoma 180 Tumor; 6.25 mg/kg × 8, po) was 68%. The “Percent Inhibition of tumor growth” value (Sarcoma 180 Tumor; 12.5 mg/kg × 8, ip) was 43%, the “Percent Inhibition of tumor growth” value (Sarcoma 180 Tumor; 12.5 mg/kg × 8, po) was 73% and the “Percent Inhibition of tumor growth” value (Sarcoma 180 Tumor; 25 mg/kg × 8, ip) was 67%. The “Percent Inhibition of tumor growth” value (Sarcoma 180 Tumor; 25 mg/kg × 8, po) was 75%, the “Percent Inhibition of tumor growth” value (Sarcoma 180 Tumor; 50 mg/kg × 8, ip) was 89% and the “Percent Inhibition of tumor growth” value (Sarcoma 180 Tumor; 50 mg/kg × 8, po) was 80%. The “Percent Inhibition of tumor growth” value (Sarcoma 180 Tumor; 100 mg/kg × 8, ip) was 88%, the “Percent Inhibition of tumor growth” value (Sarcoma 180 Tumor; 100 mg/kg × 8, po) was 83% and the “Percent Inhibition of tumor growth” value (Sarcoma 180 Tumor; 200 mg/kg × 8, ip) was 88%. The “Percent Inhibition of tumor growth” value (Sarcoma 180 Tumor; 200 mg/kg × 8, po) was 90%, the “Percent Inhibition of tumor growth” value (Sarcoma 180 Tumor; 400 mg/kg × 8, po) was 90% and the “Percent Inhibition of tumor growth” value (Ehrlich Carcinoma; 25 mg/kg × 8, ip) was 43%. For the same compound, the “Percent Inhibition of tumor growth” value (Ehrlich Carcinoma; 25 mg/kg × 8, po) was 27%, the “Percent Inhibition of tumor growth” value (Ehrlich Carcinoma; 50 mg/kg × 8, ip) was 59% and the “Percent Inhibition of tumor growth” value (Ehrlich Carcinoma; 50 mg/kg × 8, po) was 56%. The “Percent Inhibition of tumor growth” value (Ehrlich Carcinoma; 100 mg/kg × 8, ip) was 71%, the “Percent Inhibition of tumor growth” value (Ehrlich Carcinoma; 100 mg/kg × 8, po) was 70% and the “Percent Inhibition of tumor growth” value (Ehrlich Carcinoma; 200 mg/kg × 8, ip) was 86%. The “Percent Inhibition of tumor growth” value (Ehrlich Carcinoma; 200 mg/kg × 8, po) was 90%, the “Percent Inhibition of tumor growth” value (Ehrlich Carcinoma; 400 mg/kg × 8, ip) was 98% and the “Percent Inhibition of tumor growth” value (Ehrlich Carcinoma; 400 mg/kg × 8, po) was 98%. For the same compound, the “Percent Inhibition of tumor growth” value (Ehrlich Carcinoma; 800 mg/kg × 8, po) was 99%.

For `C[C@H]1O[C@@H](n2ccc(=O)[nH]c2=O)[C@H](O)[C@@H]1O` [5'-Deoxyuridine, reference compound], the “Percent Inhibition of tumor growth” value (Sarcoma 180 Tumor; 100 mg/kg × 8, ip) was 41% and the “Percent Inhibition of tumor growth” value (Sarcoma 180 Tumor; 200 mg/kg × 8, ip) was 9%.
